Like-named read-outs stand apart in the source and are kept apart here.
How the values were obtained:
[1] = molecular target: T1, human TLR8 (Homo sapiens, UniProt Q9NR97); experiment: HEK-Blue hTLR8 SEAP reporter gene inhibition assay; assay type: cell-based; details: read-out: HEK-Blue hTLR8 IC50
T1 construct: expressed in transfected cells
T1 sequence (Q9NR97 27-1041): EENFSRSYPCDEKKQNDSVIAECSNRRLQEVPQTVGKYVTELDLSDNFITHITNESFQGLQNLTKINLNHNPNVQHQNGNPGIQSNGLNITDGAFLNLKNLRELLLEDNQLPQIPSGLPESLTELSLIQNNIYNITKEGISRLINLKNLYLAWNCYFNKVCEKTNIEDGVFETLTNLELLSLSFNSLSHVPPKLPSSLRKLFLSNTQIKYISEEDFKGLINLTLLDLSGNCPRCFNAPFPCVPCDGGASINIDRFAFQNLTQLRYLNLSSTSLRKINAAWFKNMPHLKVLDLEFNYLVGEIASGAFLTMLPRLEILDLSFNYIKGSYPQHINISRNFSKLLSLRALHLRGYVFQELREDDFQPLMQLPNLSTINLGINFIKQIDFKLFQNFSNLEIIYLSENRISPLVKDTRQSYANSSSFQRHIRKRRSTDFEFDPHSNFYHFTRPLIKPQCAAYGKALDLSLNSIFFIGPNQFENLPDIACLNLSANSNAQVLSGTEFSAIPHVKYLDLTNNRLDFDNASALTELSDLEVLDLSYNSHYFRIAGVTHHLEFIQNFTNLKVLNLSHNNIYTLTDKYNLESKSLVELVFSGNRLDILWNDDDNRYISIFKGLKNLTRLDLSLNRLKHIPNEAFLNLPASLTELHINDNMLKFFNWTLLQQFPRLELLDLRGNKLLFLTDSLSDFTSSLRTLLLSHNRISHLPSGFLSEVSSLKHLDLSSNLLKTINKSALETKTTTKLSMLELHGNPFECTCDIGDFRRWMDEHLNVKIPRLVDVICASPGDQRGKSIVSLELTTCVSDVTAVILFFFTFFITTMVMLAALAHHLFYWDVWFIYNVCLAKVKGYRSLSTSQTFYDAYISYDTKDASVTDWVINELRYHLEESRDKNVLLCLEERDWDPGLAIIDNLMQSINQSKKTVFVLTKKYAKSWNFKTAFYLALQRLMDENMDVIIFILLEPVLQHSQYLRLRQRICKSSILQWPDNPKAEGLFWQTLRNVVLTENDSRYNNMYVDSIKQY
Outline: (§1)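 Cells seeded (TLR7 line 80,000, TLR8 line 60,000 per well), compound added at 0.001–36 µM final for 15 min, then agonist at 10 µM final (Gardiquimod for TLR7) for 20 h. SEAP measured with Quanti-Blue; IC50 fitted.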

[2] = molecular target: T2, human TLR7 (Homo sapiens, UniProt Q9NYK1); experiment: HEK-Blue hTLR7 SEAP reporter gene inhibition assay; assay type: cell-based; details: read-out: HEK-Blue hTLR7 IC50
T2 sequence (Q9NYK1 27-1049): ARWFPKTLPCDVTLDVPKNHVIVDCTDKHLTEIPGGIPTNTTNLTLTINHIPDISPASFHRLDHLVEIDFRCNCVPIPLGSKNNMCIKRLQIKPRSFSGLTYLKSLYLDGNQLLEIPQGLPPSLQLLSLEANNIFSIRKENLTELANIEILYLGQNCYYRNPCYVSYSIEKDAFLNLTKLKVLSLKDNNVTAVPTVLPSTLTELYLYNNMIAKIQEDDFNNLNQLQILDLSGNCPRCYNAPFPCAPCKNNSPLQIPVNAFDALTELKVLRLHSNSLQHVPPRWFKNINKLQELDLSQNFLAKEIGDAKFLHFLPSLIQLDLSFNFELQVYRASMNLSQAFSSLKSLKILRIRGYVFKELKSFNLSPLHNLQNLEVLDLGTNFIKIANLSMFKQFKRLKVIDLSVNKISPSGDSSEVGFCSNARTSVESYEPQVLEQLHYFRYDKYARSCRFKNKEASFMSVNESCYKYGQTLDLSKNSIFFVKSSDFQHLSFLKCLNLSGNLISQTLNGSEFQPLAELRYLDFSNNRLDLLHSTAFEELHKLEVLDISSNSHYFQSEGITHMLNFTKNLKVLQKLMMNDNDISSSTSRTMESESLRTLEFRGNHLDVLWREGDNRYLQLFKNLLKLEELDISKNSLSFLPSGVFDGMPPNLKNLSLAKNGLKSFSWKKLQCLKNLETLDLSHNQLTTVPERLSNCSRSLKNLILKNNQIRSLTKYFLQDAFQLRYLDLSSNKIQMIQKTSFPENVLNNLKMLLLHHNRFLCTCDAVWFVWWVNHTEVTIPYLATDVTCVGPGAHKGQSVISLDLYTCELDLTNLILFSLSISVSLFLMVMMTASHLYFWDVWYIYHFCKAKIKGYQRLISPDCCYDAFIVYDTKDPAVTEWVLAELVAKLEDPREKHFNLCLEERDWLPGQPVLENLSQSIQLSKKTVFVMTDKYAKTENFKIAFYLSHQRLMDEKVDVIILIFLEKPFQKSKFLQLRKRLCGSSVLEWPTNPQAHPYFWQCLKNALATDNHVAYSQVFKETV
Outline: as §1

[3] = hTLR8 HEK-Blue cells, TLR8 ligand 10 µM, 20 hours, SEAP by Quanti-blue, class symbols
[4] = hTLR7 HEK-Blue cells, TLR7 ligand Gardiquimod 10 µM, 20 hours, SEAP by Quanti-blue, class symbols

C[C@H]1CN(c2ccc(C#N)n3ncc(F)c23)Cc2c3c(nn21)CNCC3 [Example I-76, (S)-3-Fluoro-4-(4-methyl-3,4,7,8,9,10-hexahydropyrido[3',4':3,4]pyrazolo[1,5-a]pyrazin-2(1H)-yl)pyrazolo[1,5-a]pyridine-7-carbonitrile]
IC50 [1, 3]: > 100 nM | IC50 [2, 4]: > 50 nM

C[C@@H]1CN(c2ccc(C#N)n3ncc(F)c23)Cc2c3c(nn21)CC(N(C)C)CC3 (stereo partly drawn) [Example I-27, 4-((4R)-8-(dimethylamino)-4-methyl-3,4,7,8,9,10-hexahydropyrazino[1,2-b]indazol-2(1H)-yl)-3-fluoropyrazolo[1,5-a]pyridine-7-carbonitrile]
IC50 [1, 3]: < 100 nM | IC50 [2, 4]: > 50 nM

COC(=O)C1(CN2Cc3nn4c(c3C[C@@H]2C)CN(c2ccc(C#N)n3ncc(F)c23)C[C@H]4C)CC1 [Example I-192, Methyl 1-(((4R,9S)-2-(7-cyano-3-fluoropyrazolo [1,5-a]pyridin-4-yl)-4,9-dimethyl-1,2,3,4,9,10-hexahydropyrido[3',4':3,4]pyrazolo[1,5-a]pyrazin-8(7H)-yl)methyl) cyclopropane-1-carboxylate]
IC50 [1, 3]: < 100 nM | IC50 [2, 4]: > 50 nM

CC1Cc2nn3c(c2CN1)CN(c1ccc(C#N)n2ncc(F)c12)C[C@H]3C (single isomer, unassigned) [Example I-11a]
IC50 [1, 3]: < 100 nM | IC50 [2, 4]: < 50 nM

C[C@@H]1CN(c2ccc(C#N)n3ncc(F)c23)Cc2c3c(nn21)CNCC3CO (stereo partly drawn) [Example I-40, 3-Fluoro-4-((4R)-10-(hydroxymethyl)-4-methyl-3,4,7,8,9,10-hexahydropyrido [3',4':3,4]pyrazolo[1,5-a]pyrazin-2(1H)-yl)pyrazolo[1,5-a]pyridine-7-carbonitrile]
IC50 [1, 3]: < 100 nM | IC50 [2, 4]: > 50 nM

C[C@@H]1CN(c2ccc(C#N)n3ncc(F)c23)Cc2c3c(nn21)CN(CC(C)(CO)CO)[C@@H](C)C3 [Example I-225, 3-Fluoro-4-((4R,9S)-8-(3-hydroxy-2-(hydroxymethyl)-2-methylpropyl)-4,9-dimethyl-3,4,7,8,9,10-hexahydropyrido[3',4':3,4]pyrazolo[1,5-a]pyrazin-2(1H)-yl)pyrazolo[1,5-a]pyridine-7-carbonitrile]
IC50 [1]: > 100 nM | IC50 [2]: > 50 nM

C[C@@H]1CN(c2ccc(C#N)n3ncc(F)c23)Cc2c3c(nn21)CC(C)(N)CC3 (single isomer, unassigned) [Example I-71b]
IC50 [1, 3]: < 100 nM | IC50 [2, 4]: > 50 nM

C[C@@H]1NCCc2c1nn1c2CN(c2ccc(C#N)n3ncc(F)c23)C[C@H]1C [Example I-39, 4-((4R,7S)-4,7-dimethyl-3,4,7,8,9,10-hexahydropyrido[3',4':3,4]pyrazolo[1,5-a]pyrazin-2(1H)-yl)-3-fluoropyrazolo[1,5-a]pyridine-7-carbonitrile]
IC50 [1, 3]: < 100 nM | IC50 [2, 4]: < 50 nM

C[C@@H]1Cc2c(nn3c2CN(c2ccc(C#N)n4ncc(F)c24)C[C@H]3C)CN1 [Example I-30b]
IC50 [1, 3]: < 100 nM | IC50 [2, 4]: < 50 nM

CC1Cc2c(nn3c2CN(c2ccc(C#N)n4ncc(F)c24)C[C@H]3C)CN1 (stereo partly drawn) [Example I-30, 4-((4R)-4,9-dimethyl-3,4,7,8,9,10-hexahydropyrido[3',4':3,4]pyrazolo[1,5-a]pyrazin-2(1H)-yl)-3-fluoropyrazolo[1,5-a]pyridine-7-carbonitrile]
IC50 [1, 3]: < 100 nM | IC50 [2, 4]: < 50 nM

C[C@@H]1CN(c2ccc(C#N)n3ncc(F)c23)Cc2c3c(nn21)CN(CC(=O)N1CCN(C2CC2)CC1)[C@@H](C)C3 [Example I-136, 4-((4R,9S)-8-(2-(4-cyclopropylpiperazin-1-yl)-2-oxoethyl)-4,9-dimethyl-3,4,7,8,9,10-hexahydropyrido[3',4':3,4]pyrazolo[1,5-a]pyrazin-2(1H)-yl)-3-fluoropyrazolo[1,5-a]pyridine-7-carbonitrile]
IC50 [1, 3]: < 100 nM | IC50 [2, 4]: < 50 nM

N-(tert-butyl)-2-((4R,9S)-2-(7-cyano-3-fluoropyrazolo[1,5-a]pyridin-4-yl)-4,9-dimethyl-1,2,3,4,9,10-hexahydropyrido[3',4':3,4]pyrazolo[1,5-a]pyrazin-8(7H)-yl)acetamide [Example I-154]
IC50 [1, 3]: > 100 nM | IC50 [2, 4]: > 50 nM

C[C@@H]1CN(c2ccc(C#N)n3ncc(F)c23)Cc2c3c(nn21)CC(N1CCC(O)C1)CC3 (stereo partly drawn) [Example I-34, 3-Fluoro-4-((4R)-8-(3-hydroxypyrrolidin-1-yl)-4-methyl-3,4,7,8,9,10-hexahydropyrazino[1,2-b]indazol-2(1H)-yl)pyrazolo[1,5-a]pyridine-7-carbonitrile]
IC50 [1, 3]: < 100 nM | IC50 [2, 4]: < 50 nM

C[C@@H]1CN(c2ccc(C#N)n3ncc(F)c23)Cc2c3c(nn21)C[C@](C)(N1CCC(O)C1)CC3 (stereo partly drawn) [Example I-187, 3-Fluoro-4-((4R,8R)-8-(3-hydroxypyrrolidin-1-yl)-4,8-dimethyl-3,4,7,8,9,10-hexahydropyrazino[1,2-b]indazol-2(1H)-yl)pyrazolo[1,5-a]pyridine-7-carbonitrile]
IC50 [1, 3]: < 100 nM | IC50 [2, 4]: < 50 nM

CC1Cc2c(nn3c2CN(c2ccc(C#N)n4ncc(F)c24)C[C@H]3C)C(C)N1 (single isomer, unassigned) [Example I-59b]
IC50 [1, 3]: < 100 nM | IC50 [2, 4]: < 50 nM

C[C@@H]1CN(c2ccc(C#N)n3ncc(F)c23)Cc2c3c(nn21)CN[C@@H](CO)C3 [Example I-77, 3-Fluoro-4-((4R,9R)-9-(hydroxymethyl)-4-methyl-3,4,7,8,9,10-hexahydropyrido [3',4':3,4]pyrazolo[1,5-a]pyrazin-2(1H)-yl)pyrazolo[1,5-a]pyridine-7-carbonitrile]
IC50 [1, 3]: < 100 nM | IC50 [2, 4]: > 50 nM

C[C@@H]1CN(c2ccc(C#N)n3ncc(F)c23)Cc2c3c(nn21)CN(Cc1cn[nH]c1)CC3 [Example I-28, (R)-4-(8-((1H-pyrazol-4-yl)methyl)-4-methyl-3,4,7,8,9,10-hexahydropyrido[3',4':3,4]pyrazolo[1,5-a]pyrazin-2(1H)-yl)-3-fluoropyrazolo[1,5-a]pyridine-7-carbonitrile]
IC50 [1, 3]: < 100 nM | IC50 [2, 4]: > 50 nM

4-((4R,9S)-8-(cyanomethyl)-4,9-dimethyl-3,4,7,8,9,10-hexahydropyrido[3',4':3,4] pyrazolo[1,5-a]pyrazin-2(1H)-yl)-3-fluoropyrazolo[1,5-a]pyridine-7-carbonitrile [Example I-124]
IC50 [1, 3]: < 100 nM | IC50 [2, 4]: < 50 nM
